Measured values: article PMC2646200 (Biochemistry, 2008)

B1: PDE8A1 (Homo sapiens) (protein)
chain: SLDDVPPRIARAMENEEYWDFDIFELEAATHNRPLIYLGLKMFARFGICEFLHCSESTLRSWLQIIEANYHSSNPYHNSTHSADVLHATAYFLSKERIKETLDPIDEVAALIAATIHDVDHPGRTNSFLCNAGSELAILYNDTAVLESHHAALAFQLTTGDDKCNIFKNMERNDYRTLRQGIIDMVLATEMTKHFEHVNKFVNSINKPLATLEENGETDKNQEVINTMLRTPENRTLIKRMLIKCADVSNPCRPLQYCIEWAARISEEYFSQTDEEKQQGLPVVMPVFDRNTCSIPKSQISFIDYFITDMFDAWDAFVDLPDLMQHLDNNFKYWKGLDEMK

Legend:
PDE8A1 [1] = target: PDE8A1 (Homo sapiens, UniProt O60658); assay: 3H-cAMP hydrolysis assay, IC50; assay type: biochemical
PDE8A1 [2] = target: PDE8A1 (Homo sapiens, UniProt O60658, Y748F); assay: 3H-cAMP hydrolysis assay, IC50; assay type: biochemical
purified protein = substrate: [H][C@@]12COP(=O)(O)O[C@@]1([H])[C@@H](O)[C@H](n1cnc3c(=O)[nH]c(N)nc31)O2; assay: purified protein; settings: Mn2+ ([…] MnCl2)

Sequence of PDE8A1 (Homo sapiens, UniProt O60658, Y748F) (O60658 480-820 Y748F): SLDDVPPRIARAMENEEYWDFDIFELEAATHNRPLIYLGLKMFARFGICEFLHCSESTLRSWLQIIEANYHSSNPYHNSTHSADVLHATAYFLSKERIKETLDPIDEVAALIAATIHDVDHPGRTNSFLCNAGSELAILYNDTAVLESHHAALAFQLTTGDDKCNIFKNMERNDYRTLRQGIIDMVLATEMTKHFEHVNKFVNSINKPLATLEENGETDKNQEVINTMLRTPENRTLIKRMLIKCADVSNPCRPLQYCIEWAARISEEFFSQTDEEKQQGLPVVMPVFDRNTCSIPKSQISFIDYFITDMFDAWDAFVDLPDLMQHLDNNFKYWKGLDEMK

Molecule	IC50 (PDE8A1 [1])	IC50 (PDE8A1 [2])	Km (purified protein)
OCCN(CCO)c1nc(N2CCCCC2)c2nc(N(CCO)CCO)nc(N3CCCCC3)c2n1 [dipyridamole]	6 ± 0.4 µM	4.1 ± 0.4 µM	
B1			1600 ± 100 µM
